# Key:
# Type in all cases: ADME
# [1] = biological target: T1, Cytochrome P450 2C19 (Homo sapiens, UniProt P33261, W212C); test: Activity of human recombinant CYP2C19 W212C mutant expressed in Saccharomyces cerevisiae BJ5457 assessed as intrinisic clearance foromeprazole 5'-hydroxylation per pmol protein after 60 mins; details: recombinant enzyme, 1 h
# [2] = biological target: Cytochrome P450 2C19 (Homo sapiens, UniProt P33261, A161P); test: Activity of human recombinant CYP2C19 A161P mutant expressed in Saccharomyces cerevisiae BJ5457 assessed as omeprazole 5'-hydroxylation per pmol protein at 100 uM after 60 mins; details: recombinant enzyme, 1 h
# [3] = biological target: T2, Cytochrome P450 2C19 (Homo sapiens, UniProt P33261, F168L); test: Activity of human recombinant CYP2C19 F168L mutant expressed in Saccharomyces cerevisiae BJ5457 assessed asomeprazole 5'-hydroxylation per pmol protein after 60 mins; details: recombinant enzyme, 1 h
# [4] = biological target: T3, Cytochrome P450 2C19 (Homo sapiens, UniProt P33261, D360N); test: Activity of human recombinant CYP2C19 D360N mutant expressed in Saccharomyces cerevisiae BJ5457 assessed as omeprazole 5'-hydroxylation per pmol protein at 100 uM after 60 mins; details: recombinant enzyme, 1 h
# [5] = biological target: T4, Cytochrome P450 2C19 (Homo sapiens, UniProt P33261, P227L); test: Activity of human recombinant CYP2C19.10 mutant expressed in Saccharomyces cerevisiae BJ5457 assessed as omeprazole 5'-hydroxylation per pmol protein at 5 uM after 60 mins; details: recombinant enzyme, 1 h
# [6] = biological target: Cytochrome P450 2C19 (Homo sapiens, UniProt P33261, S51G); test: Activity of human recombinant CYP2C19.19 mutant expressed in Saccharomyces cerevisiae BJ5457 assessed as omeprazole 5'-hydroxylation per pmol protein at 100 uM after 60 mins; details: recombinant enzyme, 1 h
# [7] = biological target: T1, Cytochrome P450 2C19; test: Activity of human recombinant CYP2C19 W212C mutant expressed in Saccharomyces cerevisiae BJ5457 assessed asomeprazole 5'-hydroxylation per pmol protein after 60 mins; details: recombinant enzyme, 1 h
# [8] = biological target: T5, Cytochrome P450 2C19 (Homo sapiens, UniProt P33261, R329H); test: Activity of human recombinant CYP2C19.18 mutant expressed in Saccharomyces cerevisiae BJ5457 assessed as omeprazole 5'-hydroxylation per pmol protein at 100 uM after 60 mins; details: recombinant enzyme, 1 h
# [9] = biological target: T1, Cytochrome P450 2C19; test: Activity of human recombinant CYP2C19 W212C mutant expressed in Saccharomyces cerevisiae BJ5457 assessed as omeprazole 5'-hydroxylation per pmol protein at 5 uM after 60 mins; details: recombinant enzyme, 1 h
# [10] = biological target: Cytochrome P450 2C19 (Homo sapiens, UniProt P33261, E92D); test: Activity of human recombinant CYP2C19 E92D mutant expressed in Saccharomyces cerevisiae BJ5457 assessed as omeprazole 5'-hydroxylation per pmol protein at 5 uM after 60 mins; details: recombinant enzyme, 1 h
# [11] = biological target: Cytochrome P450 2C19 (Homo sapiens, UniProt P33261, M74T); test: Activity of human recombinant CYP2C19 M74T mutant expressed in Saccharomyces cerevisiae BJ5457 assessed asomeprazole 5'-hydroxylation per pmol protein after 60 mins; details: recombinant enzyme, 1 h
# [12] = biological target: T6, Cytochrome P450 2C19 (Homo sapiens, UniProt P33261, R144H); test: Activity of human recombinant CYP2C19.9 mutant expressed in Saccharomyces cerevisiae BJ5457 assessed as intrinisic clearance foromeprazole 5'-hydroxylation per pmol protein after 60 mins; details: recombinant enzyme, 1 h
# [13] = biological target: T7, Cytochrome P450 2C19 (Homo sapiens, UniProt P33261, R150H); test: Activity of human recombinant CYP2C19.11 mutant expressed in Saccharomyces cerevisiae BJ5457 assessed asomeprazole 5'-hydroxylation per pmol protein after 60 mins; details: recombinant enzyme, 1 h
# [14] = biological target: T2, Cytochrome P450 2C19; test: Activity of human recombinant CYP2C19 F168L mutant expressed in Saccharomyces cerevisiae BJ5457 assessed as intrinisic clearance foromeprazole 5'-hydroxylation per pmol protein after 60 mins; details: recombinant enzyme, 1 h
# [15] = biological target: CYP2C19.14 (CYP2C19 variant) (Homo sapiens, UniProt P33261, L17P); test: Activity of human recombinant CYP2C19.14 mutant expressed in Saccharomyces cerevisiae BJ5457 assessed asomeprazole 5'-hydroxylation after 60 mins; details: probe omeprazole (5'-hydroxylation)
# [16] = biological target: T7, Cytochrome P450 2C19; test: Activity of human recombinant CYP2C19.11 mutant expressed in Saccharomyces cerevisiae BJ5457 assessed as intrinisic clearance foromeprazole 5'-hydroxylation per pmol protein after 60 mins; details: recombinant enzyme, 1 h
# [17] = biological target: Cytochrome P450 2C19 (Homo sapiens, UniProt P33261, R410C); test: Activity of human recombinant CYP2C19.13 mutant expressed in Saccharomyces cerevisiae BJ5457 assessed asomeprazole 5'-hydroxylation after 60 mins; details: recombinant enzyme, 1 h
# [18] = Activity of human recombinant CYP2C19.6 mutant expressed in Saccharomyces cerevisiae BJ5457 assessed as omeprazole 5'-hydroxylation per pmol protein at 5 uM after 60 mins; details: recombinant enzyme, 1 h
# [19] = biological target: T8, Cytochrome P450 2C19 (Homo sapiens, UniProt P33261, V331I/R442C); test: Activity of human recombinant CYP2C19.16 mutant expressed in Saccharomyces cerevisiae BJ5457 assessed asomeprazole 5'-hydroxylation after 60 mins; details: recombinant enzyme, 1 h
# [20] = biological target: T4, Cytochrome P450 2C19; test: Activity of human recombinant CYP2C19.10 mutant expressed in Saccharomyces cerevisiae BJ5457 assessed as intrinisic clearance foromeprazole 5'-hydroxylation per pmol protein after 60 mins; details: recombinant enzyme, 1 h
# [21] = biological target: T9, Cytochrome P450 2C19 (Homo sapiens, UniProt P33261, I19L); test: Activity of human recombinant CYP2C19.15 mutant expressed in Saccharomyces cerevisiae BJ5457 assessed asomeprazole 5'-hydroxylation after 60 mins; details: recombinant enzyme, 1 h
# [22] = biological target: Cytochrome P450 2C19 (Homo sapiens, UniProt P33261, E122A); test: Activity of human recombinant CYP2C19 E122A mutant expressed in Saccharomyces cerevisiae BJ5457 assessed as intrinisic clearance foromeprazole 5'-hydroxylation per pmol protein after 60 mins; details: recombinant enzyme, 1 h
# [23] = biological target: T5, Cytochrome P450 2C19; test: Activity of human recombinant CYP2C19.18 mutant expressed in Saccharomyces cerevisiae BJ5457 assessed asomeprazole 5'-hydroxylation after 60 mins; details: recombinant enzyme, 1 h
# [24] = biological target: T3, Cytochrome P450 2C19; test: Activity of human recombinant CYP2C19 D360N mutant expressed in Saccharomyces cerevisiae BJ5457 assessed as intrinisic clearance foromeprazole 5'-hydroxylation per pmol protein after 60 mins; details: recombinant enzyme, 1 h
# [25] = biological target: T8, Cytochrome P450 2C19; test: Activity of human recombinant CYP2C19.16 mutant expressed in Saccharomyces cerevisiae BJ5457 assessed as omeprazole 5'-hydroxylation per pmol protein at 5 uM after 60 mins; details: recombinant enzyme, 1 h
# [26] = biological target: Cytochrome P450 2C19 (Homo sapiens, UniProt P33261); test: Activity of human recombinant CYP2C19.1B mutant expressed in Saccharomyces cerevisiae BJ5457 assessed asomeprazole 5'-hydroxylation after 60 mins; details: recombinant enzyme, 1 h
# [27] = biological target: Cytochrome P450 2C19 (Homo sapiens, UniProt P33261, L17P); test: Activity of human recombinant CYP2C19.14 mutant expressed in Saccharomyces cerevisiae BJ5457 assessed as omeprazole 5'-hydroxylation per pmol protein at 5 uM after 60 mins; details: recombinant enzyme, 1 h
# [28] = biological target: T8, Cytochrome P450 2C19; test: Activity of human recombinant CYP2C19.16 mutant expressed in Saccharomyces cerevisiae BJ5457 assessed asomeprazole 5'-hydroxylation per pmol protein after 60 mins; details: recombinant enzyme, 1 h
# [29] = biological target: T6, Cytochrome P450 2C19; test: Activity of human recombinant CYP2C19.9 mutant expressed in Saccharomyces cerevisiae BJ5457 assessed asomeprazole 5'-hydroxylation after 60 mins; details: recombinant enzyme, 1 h
# [30] = biological target: T9, Cytochrome P450 2C19; test: Activity of human recombinant CYP2C19.15 mutant expressed in Saccharomyces cerevisiae BJ5457 assessed asomeprazole 5'-hydroxylation per pmol protein after 60 mins; details: recombinant enzyme, 1 h
compound,measurement,setting,value
COc1ccc2[nH]c([S+]([O-])Cc3ncc(C)c(OC)c3C)nc2c1 (stereo not given) [OMEPRAZOLE],CL,[1],0.18 µL/min
same,Drug metabolism,[2],1.39 pmol/min
same,Vmax,[3],6.05 pmol/min
same,Drug metabolism,[4],4.1 pmol/min
same,Drug metabolism,[5],1.94 pmol/min
same,Drug metabolism,[6],8.65 pmol/min
same,Vmax,[7],2.04 pmol/min
same,Drug metabolism,[8],4.83 pmol/min
same,Drug metabolism,[9],0.58 pmol/min
same,Drug metabolism,[10],2.95 pmol/min
same,Vmax,[11],4.03 pmol/min
same,CL,[12],0.62 µL/min
same,Vmax,[13],8.34 pmol/min
same,CL,[14],0.94 µL/min
same,Km at 1 h,[15],4.3 µM
same,CL,[16],1.68 µL/min
same,Km,[17],4.87 µM
same,Drug metabolism,[18],metabolite_not_detected
same,Km,[19],4.17 µM
same,CL,[20],0.5 µL/min
same,Km,[21],6.78 µM
same,CL,[22],0.4 µL/min
same,Km,[23],6.02 µM
same,CL,[24],0.53 µL/min
same,Drug metabolism,[25],0.65 pmol/min
same,Km,[26],4.16 µM
same,Drug metabolism,[27],2.85 pmol/min
same,Vmax,[28],1.68 pmol/min
same,Km,[29],10.1 µM
same,Vmax,[30],8.18 pmol/min

# From ChEMBL document CHEMBL3526057 (Drug Metab Dispos, 2011)
